The source of these data is patent publication US8138227B2, “Method for inhibiting or reversing non-enzymatic glycation” (Trustees of Dartmouth College, priority 2006, dated 2012).

This assay can be described thus: Transglycation of glucose-ethylamine with thiolamines followed by 13C NMR. The following applies: 50 mM thiolamine, 20 mM G-E; for potency as transglycating agent (kinetics of decomposition of G-E and formation of thiazolidines): pH 7.25, room temperature; for conversion of G-E to thiazolidine (glucosyl-cysteamine / glucosyl-penicillamine): 250 mM HEPES pH 7.25, room temperature. Here is the method:
The reaction mixture (0.5 ml in a 5 mm NMR tube) included 250 mM HEPES, pH 7.25, 10% D2O (for the purpose of locking the NMR magnetic field) and 50 mM concentration of a compound of interest such as cysteine. The reaction was performed at room temperature and it was initiated by adding an aliquot of G-E to produce a final concentration of 20 mM at which time consecutive NMR spectra of 20-minute duration were acquired using 580 scans, 60° pulses and an interpulse delay of 2.065 seconds.
NMR spectra were obtained on the VARIAN UNITY-300 and -500 MHz machines. Spectra were analyzed using information from model compounds and chemical shift data known in the art (Neglia, et al. (1985) J. Biol. Chem. 260:5406-10; Mossine, et al. (1994) Carbohyd. Res. 262:257-70).
Studies of reactions involving Schiff bases are intrinsically difficult as these compounds are labile at physiological pH. As such, to unambiguously follow Shiff base reactions in real-time, ^13C NMR spectroscopy was employed. To utilize this technique efficiently, glucose-ethylamine (G-E) was synthesized and labeled with ^13C at the C-1 position of the glucose moiety and with ^15N at the amino group of the ethylamine as a model compound of glucosyl-lysine.
Due to the spin-spin coupling between the nuclei of neighboring ^15N and ^13C atoms, the ^13C-labeled C-1 peak of glucose appeared in the ^13C NMR spectrum as a doublet resonating at 90.00 ppm. The unique signature doublet in the ^13C NMR spectrum of G-E, its chemical shift as well as the distinct ^13C chemical shifts of the other glucose-nucleophile adducts allowed for real-time observation reactions between G-E and various nucleophiles since cleavage of the ethylamine-glucose bond results in loss of the G-E doublet and the concomitant formation of new peaks corresponding to the new glucose-nucleophile adducts, e.g., the endproducts of transglycation of G-E, with glycine, taurine, spermidine and N-acetylcysteine. Because all of these transglycation products are labile at physiological pHs, the reactions were carried at a slightly alkaline pH of 8.5 to stabilize the reactants and products sufficiently so they could be followed by NMR over a span of several hours.

The structures appear in SMILES notation.

Consider `N[C@@H](CS)C(=O)NCC(=O)O` [cys-gly], for which the “potency as transglycating agent (kinetics of decomposition of G-E and formation of thiazolidines)” value (“potency as transglycating agent” below) is given as “reasonably good transglycating agents”.

Turning to `NCCS` [cysteamine], the “conversion of G-E to thiazolidine (glucosyl-cysteamine / glucosyl-penicillamine)” value is recorded as 80%; the “potency as transglycating agent” value is recorded as “much more potent”.

With `N[C@@H](CS)C(=O)O` [cysteine], the “potency as transglycating agent” value is given as “reasonably good transglycating agents”.

On to `CC(C)(S)[C@@H](N)C(=O)O` [penicillamine], for which the “conversion of G-E to thiazolidine (glucosyl-cysteamine / glucosyl-penicillamine)” value was found to be 70%; the “potency as transglycating agent” value is “much more potent”.
